Laboratory results as given in US6391568B1, “Method for determining platelet reactivity in a whole blood sample” (Lionheart Technologies, Inc., priority 1998, dated 2002).

System: platelets (surface glycoprotein IIb-IIIa)
Experiment: Inhibition of fibrinogen*FITC binding to ADP-activated platelets in whole blood spiked with ReoPro (microtitration well capture)
Assay type: cell-based
Conditions: whole blood (CTI 32 μg/ml) pretreated with ReoPro 3 μg/ml; ADP 0, 0.4, 0.8 μM; FIG. 3
Source text: The concentration of ReoPro used is that known to inhibit the aggregation of platelets as determined with the use of aggregometry.

ReoPro: antiplatelet drug that inhibits binding of fibrinogen to the activated conformer of surface glycoprotein IIb-IIIa
binding of fibrinogen*FITC to platelets (ratio of fibrinogen*FITC signal to CD42*PerCP signal): inhibits
